Reference: patent publication US20080214563A1, “Benzimidazole Thiophene Compounds As Plk Modulators” (priority 2005, published 2008)

Tests used:
HN5 = test: Cell-Titer Glo Cell Growth Inhibition Assay, HN5; format: cell-based; settings: Homo sapiens, CellTiter-Glo, 72 h, read-out: CTG HN5 IC50
Description: (§1) A549-L (human lung), BT474 (human breast), Colo 205 (human colon), H1299 (human lung), Hela (human cervix), HCT-116 (human colon), HN5 (human head and neck), HT29 (human colon), LNCap (human prostate), MCF7 (human breast), MDA-MB468 (human breast), MX-1 (human breast), RPMI 8226 (human peripheral blood), SKOV3 (human ovary) and P388 (murine leukemia) cell lines were cultured in RPMI1640 containing 10% fetal bovine serum at 37° C. in a 5% CO2 incubator. Cell lines were split into T75 flasks (Falcon #353136) two to three days prior to assay set up at density which yields approximately 70-80% confluency at time of harvest for assay. Cells were harvested using 0.25% trypsin with EDTA (Glibco/Invitrogen #25200-056), Cell counts were performed on cell suspensions using Trypan Blue exclusion staining, cells were then plated in 105 uL of culture media per well at the following densities in 96 well Costar #3916 black flat bottom plates: All human cell lines were plated at 500 cells/well. P388 were plated at 250 cells/well. All plates were placed at 5% CO2 37° C. overnight and then test compounds were added the following day. One plate of each cell type is treated with CellTiter-Glo (Promega #G7573) for a day 0 proliferation measurement and read as described below. […]

P388 = test: Cell-Titer Glo Cell Growth Inhibition Assay, P388; format: cell-based, murine; settings: Mus musculus, CellTiter-Glo, 72 h, read-out: CTG P388 IC50
Description: (§2) A549-L (human lung), BT474 (human breast), Colo 205 (human colon), H1299 (human lung), Hela (human cervix), HCT-116 (human colon), HN5 (human head and neck), HT29 (human colon), LNCap (human prostate), MCF7 (human breast), MDA-MB468 (human breast), MX-1 (human breast), RPMI 8226 (human peripheral blood), SKOV3 (human ovary) and P388 (murine leukemia) cell lines were cultured in RPMI1640 containing 10% fetal bovine serum at 37° C. in a 5% CO2 incubator. Cell lines were split into T75 flasks (Falcon #353136) two to three days prior to assay set up at density which yields approximately 70-80% confluency at time of harvest for assay. Cells were harvested using 0.25% trypsin with EDTA (Glibco/Invitrogen #25200-056), Cell counts were performed on cell suspensions using Trypan Blue exclusion staining, cells were then plated in 105 uL of culture media per well at the following densities in 96 well Costar #3916 black flat bottom plates: All human cell lines were plated at 500 cells/well. P388 were plated at 250 cells/well. All plates were placed at 5% CO2 37° C. overnight and then test compounds were added the following day. One plate of each cell type is treated with CellTiter-Glo (Promega #G7573) for a day 0 proliferation measurement and read as described below. The test compounds are prepared in clear U bottom polypropylene 96 well plates (Falcon #35-1190 with consecutive two fold dilutions. 9 uL of these dilutions was added into each well of the cell plates. The final concentration of DMSO in all wells is 0.15%. Cells were incubated at 37° C., 5% CO2 for 72 h. Following 72 h of incubation with compounds each plate was developed and read. CellTiter-Glo reagent was added to assay plates using a volume equivalent to the cell culture volume in the wells. Plates were shaken for approximately two minutes and incubated at room temperature for approximately 15 min and the chemiluminescent signal is read on the Victor V or Envison 2100 reader. […] Concentration of compound that inhibited 50% of cell growth (IC50) was analysis by 4 or 6 parameter fit of data using XLfit, value of no cell addition was subtracted from all samples for background.

MX-1 = test: Cell-Titer Glo Cell Growth Inhibition Assay, MX-1; format: cell-based; settings: Homo sapiens, MX1, CellTiter-Glo, 72 h, read-out: CTG MX-1 IC50
Description: as §2

BT474 = test: Cell-Titer Glo Cell Growth Inhibition Assay, BT474; format: cell-based; settings: Homo sapiens; CellTiter-Glo, 72 h, BT 474; read-out: CTG BT 474 IC50
Description: as §1

Hela = test: Cell-Titer Glo Cell Growth Inhibition Assay, Hela; format: cell-based; settings: Homo sapiens, CellTiter-Glo, 72 h, read-out: CTG Hela IC50
Description: as §1

MCF7 = test: Cell-Titer Glo Cell Growth Inhibition Assay, MCF7; format: cell-based; settings: Homo sapiens, CellTiter-Glo, 72 h, read-out: CTG MCF7 IC50
Description: as §1

Colo 205 = test: Cell-Titer Glo Cell Growth Inhibition Assay, COLO205; format: cell-based; settings: Homo sapiens, CellTiter-Glo, 72 h, read-out: CTG COLO205 IC50
Description: as §2

SKOV3 = test: Cell-Titer Glo Cell Growth Inhibition Assay, SKOV-3; format: cell-based; settings: Homo sapiens, SK-OV-3, CellTiter-Glo, 72 h, read-out: CTG SKOV-3 IC50
Description: as §2

[1] = Intravenous pharmacokinetics in CD-1 mouse; format: in vivo; settings: plasma, iv bolus, male CD-1 mouse, dose 1.9-7.4 mg/kg per compound (Table 3)
Description: Preliminary investigation of the intravenous pharmacokinetics of compounds of invention were carried out in fed conscious CD-1 mouse. Compounds were formulated as 1-10 mg/kg, 5 mL/kg, 1-2 mg/mL solution (Table 3). Twenty one male mice (n=3 mice per time point) (˜30 g) received dose solution by bolus injection in the tail vein. The formulation for iv were either 20% beta cyclodextrin in saline pH 3.5-6 or PEG400:ethanol:saline (50:15:35 v/v). Blood samples (˜0.4 mL) were collected terminally by cardiac puncture following anesthetization in a CO2 chamber at 2, 15, 30, 60 min, 2, 4, and 6 h following iv administration. Blood samples were collected into tubes containing heparin and placed on crushed ice promptly after collection. Plasma was collected by centrifugation, frozen and stored at about −80° C. prior to analysis. Blood or plasma concentrations were determined by LC/MS/MS equipped with an electrospray ion source and using calibration curves for the appropriate matrix. The lower level of quantitation (LLQ) was 10 ng/mL. Blood or plasma concentration-time data were analyzed by non-compartmental methods using the computer program WinNonlin Professional (version 4.1). Area under the blood or plasma concentration-time curve (AUC) was calculated using the linear trapezoidal rule for each incremental trapezoid up to Cmax, and the log trapezoidal rule for each trapezoid thereafter. The terminal elimination rate constant (λz) was derived from the log-linear disposition phase of the concentration-time curve using least-squares regression analysis with visual inspection of the data to determine the appropriate number of terminal data points for regression analysis.
Following iv administration, the total body clearance (CL) was estimated. CL was calculated by dividing the dose by AUC(0−t). The clearance values were assigned as follows. Low <30 mL/min/kg, moderate 30-70 mL/min/kg, high >70 mL/min/kg. The assignment was based on hepatic blood flow i.e. hepatic blood flow of 0-30% low, 30-70% moderate and 70-100% high. The hepatic blood flow in mouse is ˜100 mL/min/kg.

HCT-116 = test: Cell-Titer Glo Cell Growth Inhibition Assay, HCT116; format: cell-based; settings: Homo sapiens, CellTiter-Glo, 72 h, read-out: CTG HCT116 IC50
Description: as §2

LNCap = test: Cell-Titer Glo Cell Growth Inhibition Assay, LNCap; format: cell-based; settings: Homo sapiens, CellTiter-Glo, 72 h, read-out: CTG LNCap IC50
Description: as §1

A549-L = test: Cell-Titer Glo Cell Growth Inhibition Assay, A549-L; format: cell-based; settings: Homo sapiens, CellTiter-Glo, 72 h, read-out: CTG A549-L IC50
Description: as §2

HT29 = test: Cell-Titer Glo Cell Growth Inhibition Assay, HT29; format: cell-based; settings: Homo sapiens, HT-29, CellTiter-Glo, 72 h, read-out: CTG HT29 IC50
Description: as §2

RPMI 8226 = test: Cell-Titer Glo Cell Growth Inhibition Assay, RPMI 8226; format: cell-based; settings: Homo sapiens, CellTiter-Glo, 72 h, read-out: CTG RPMI 8226 IC50
Description: as §1

H1299 = test: Cell-Titer Glo Cell Growth Inhibition Assay, H1299; format: cell-based; settings: Homo sapiens, NCI-H1299, CellTiter-Glo, 72 h, read-out: CTG H1299 IC50
Description: as §1

MDA-MB468 = test: Cell-Titer Glo Cell Growth Inhibition Assay, MDA-MB468; format: cell-based; settings: Homo sapiens, MDA-MB-468, CellTiter-Glo, 72 h, read-out: CTG MDA-MB468 IC50
Description: as §1

CCN1CCN(CCCn2cc(-c3ccc4c(c3)ncn4-c3cc(O[C@H](C)c4ccccc4Cl)c(C(N)=O)s3)cn2)CC1 [Example 8, 3-{[(1R)-1-(2-Chlorophenyl)ethyl]oxy}-5-(5-{1-[3-(4-ethyl-1-piperazinyl)propyl]-1H-pyrazol-4-yl}-1H-benzimidazol-1-yl)-2-thiophenecarboxamide]
IC50 (HN5): < 100 nM | IC50 (P388): < 100 nM | IC50 (MX-1): < 100 nM | IC50 (BT474): < 100 nM | IC50 (Hela): < 100 nM | IC50 (MCF7): < 100 nM | IC50 (Colo 205): < 100 nM | IC50 (SKOV3): < 100 nM | AUC(0-t) [1]: 1410 ng·h/mL | clearance ([1]; read-out: Plasma CL): 43.6 mL/min/kg | IC50 (HCT-116): < 100 nM | IC50 (LNCap): < 100 nM | IC50 (A549-L): < 100 nM | IC50 (HT29): < 100 nM | IC50 (RPMI 8226): < 100 nM | IC50 (H1299): < 100 nM | IC50 (MDA-MB468): < 100 nM
